Reference: US10188629B2, “Prodrug of green tea epigallocatechin-3-gallate (pro-EGCG) for use in the treatment of endometriosis” (The Hong Kong Polytechnic University, priority 2012, dated 2019)
“Also recorded” adds a separate entry of the source.

How the values were obtained:
[1] = tested on: microvessels in the endometriotic lesions; experiment: Angiogenesis of endometriotic lesions by Cellvizio, microCT and CD31/αSMA immunostaining; format: in vivo, mice; details: after 4 weeks; for functional capillary length, density and area in the lesions compared to saline group / total vessel area in the lesions compared to saline group / total vessel length in the lesions compared to saline group / lesion neovascularization: Cellvizio; for functional capillary length, density and area in the lesions compared to saline group / total vessel area in the lesions compared to saline group / total vessel length in the lesions compared to saline group: FITC-Dextran; for lesion neovascularization / vessel volume and density in the lesions compared to saline group: microCT; for lesion neovascularization: CD31 and αSMA staining; for CD31-positively and αSMA-negatively stained new microvessel numbers compared to saline group / CD31-positively and αSMA-positively stained old microvessel numbers compared to saline group: immunostaining; for vessel volume and density in the lesions compared to saline group: Microfil
Experimental: At the end of intervention, functional angiogenesis of the endometriotic lesions (n=8 per group) was monitored by measuring the flow of fluorescence dye in the new microvessels developed in the implants using a Cellvizio® LAB LSU-488 system with a ProFlex Microprobe S1500 (Mauna Kea Technologies, Paris) as previously described (Xu H, et al. Fertil Steril 2011; 96:1021-8.). A total of 10 mg/ml of FITC-Dextran was injected intravenously into each mouse prior to imaging. Total vessel length (μm) and area (μm^2) and functional capillary length (μm^−1) and area density were measured using Cellvizio® LAB Vessel Detection software, and averaged from 4 perpendicular regions of the lesions in replicates. At the same time, apoptotic cells in the lesions were captured by Cellvizio-LAB 488 with a ProFlex MiniO/100 microprobe using Cellvizio® LAB I/C Viewer software (Mauna Kea Technologies). A total of 10 μl of 10 μM YO-PRO®-1 iodide in DSMO was injected into the lesion area.
After live animal imaging, structural angiogenesis in the endometriotic lesions (n=4 per group) was further examined by detecting the Microfil in the new microvessels developed in the implants using a VivaCT 40 μCT system (Scanco Medical, Switzerland) as previously described (Sun M H, et al. J Orthop Res. 2012; 30:137-43.). The mice were sacrificed by cervical dislocation and where immediately perfused with 4% paraformaldehyde and Microfil MV-120 Blue. Three-dimensional microvessel architecture was constructed, and absolute and relative Microfil-filled microvessel volumes were determined using the built-in software.
(§1) Paraffin sections (n=4 per group) were prepared for standard hematoxylin and eosin (H&E) staining, angiogenesis immunostaining and TUNEL staining as previously described (Xu H, et al. Hum Reprod 2009; 24:608-18.). Immunohistochemistry staining of in situ angiogenesis was performed by the immunoperoxidase method using a MACH 3 HRP Polymer Kit (Biocare Medical, Concord), and counterstained using methyl green or blue solution.
Antibodies against mouse CD31 and alpha-smooth muscle actin (αSMA) (Abcam Inc., MA) were used to double fluorescence stain the microvessels developed in the endometriotic lesions, and CD34 (Abeam Inc.) was used to stain the microvessels in the ovaries and uterus. The samples without primary antibodies served as negative controls. The total number of positively stained new and old microvessels in the lesions was counted, respectively. The mean microvessel numbers and sizes were calculated from 5 separated sections from each animal within the treatment group and are presented as numbers per lesion and μm^2 per lesion, respectively.

[2] = tested on: endometriotic lesions (experimental endometriosis); experiment: Lesion size, weight and histology at end of intervention; format: in vivo, mice; details: for lesion size compared to control group / lesion weight compared to control group / development and histology of the endometriotic lesions: after 4 weeks i.p. once per day; for lesion size compared to control group / lesion weight compared to control group: EGCG, pro-EGCG 50 mg/kg, vitamin E 20 mg/kg; for development and histology of the endometriotic lesions: microscopic examination
Description: In this study, endometrial tissues from eight-week-old female CMV-Luc mice (n=15) were acquired for transplantation into nonluminescent NOD-SCID mice (n=32). The mouse endometrium was obtained during the proliferating estrous stage, and biopsies 2 mm in diameter were obtained with a sterile dermal biopsy punch (Miltex, NY). The biopsies were immediately washed in prewarmed, phenol-red-free DMEM/F-12 medium (Sigma) to remove residual blood and mucus, and the samples were maintained in serum-free DMEM/F-12 medium before transplantation (Bruner-Tran K L, et al. J Clin Endocrinol Metab 2009; 94:2489-94). Cultured endometrial biopsies were randomly allocated for transplantation.
Five mouse endometrial biopsies per treatment group were implanted into a single subcutaneous pocket created is the abdominal wall of the mice along the ventral midline immediately below the umbilicus. All of the surgical procedures were performed under general anesthesia with isoflurane (Baxter, IL), and the mice were monitored until they fully recovered.
At the end of intervention, size of the endometriotic lesions was determined as the longest length and perpendicular width according to a venire caliper and was calculated as 0.52×width^2×length in mm^3. The endometrial implants, together with subcutaneous and muscle layers, were removed from the abdomen wall for detailed histological examination and specific staining analysis.
as §1

[3] = cited from earlier work
[4] = General tolerability and body weight during the intervention; details: i.p. once per day, 4 weeks; EGCG, pro-EGCG 50 mg/kg, vitamin E 20 mg/kg
Experimental: Immediately after the transplantation, the mice were randomly assigned to receive either vehicle (n=8; sham control), vitamin E (n=8; anti-oxidant control, 20 mg/kg), EGCG (n=8; anti-angiogenesis control, 50 mg/kg, ≈1.5 mg/30 g) or pro-EGCG (n=8; 50 mg/kg).
Dulbecco's phosphate-buffered saline (PBS, Sigma) was used as solvent to dissolve the drugs. These doses were selected because their significant an angiogenic and anti-oxidative effects have been reported in mice (Sang S, et al. Chem Res Toxicol 2005; 18:1762-9; Villayandre B M, et al. Brain Research 2004; 1028, 148-55). The treatments were administered once per day via intraperitoneal injections for a consecutive 4-week period.

[5] = tested on: ovarian follicles, endometrial glands, ovarian and endometrial stroma microvessels; experiment: Reproductive effects on eutopic endometrium and ovaries (H&E, CD34 immunostaining); format: in vivo, mice; details: H&E staining after 4-week intervention
Experimental: Reproductive effects of EGCG and pro-EGCG on the endometrium and ovaries of each animal were also examined. After the 4-week intervention, the uterine horns and ovaries (n=8 per group) were removed and fixed for histological examination and angiogenesis immunostaining as described above. Endometrial glands, ovarian follicles and vascularization in endometrial and ovarian stroma were assessed.

[6] = tested on: human prostate, breast, leukemic, and simian virus 40-transformed cells; details: cited from earlier work
cancer cells = details: cited from earlier work
[7] = after 4 weeks, 50 mg/kg i.p. once per day

| SMILES | functional capillary length, density and area in the lesions compared to saline group [1] | total vessel area in the lesions compared to saline group [1] | total vessel length in the lesions compared to saline group [1] | lesion neovascularization [1] | CD31-positively and αSMA-negatively stained new microvessel numbers compared to saline group [1] | CD31-positively and αSMA-positively stained old microvessel numbers compared to saline group [1] | vessel volume and density in the lesions compared to saline group [1] | lesion size compared to control group [2] | lesion weight compared to control group [2] | development and histology of the endometriotic lesions [2] | effects on ovarian follicles [5] | effects on uterine endometrial glands [5] | other results |
| --- | --- | --- | --- | --- | --- | --- | --- | --- | --- | --- | --- | --- | --- |
| O=C(O[C@@H]1Cc2c(O)cc(O)cc2O[C@@H]1c1cc(O)c(O)c(O)c1)c1cc(O)c(O)c(O)c1 [EGCG, (−)-epigallocatechin-3-gallate] | significantly inhibited | significantly inhibited | significantly inhibited | poorly developed | significantly inhibited | significantly inhibited | significantly inhibited | significantly decreased | significantly decreased | poorly developed; also recorded: small and loosely attached to the adjacent tissues | not affected | not affected | bioavailability [3]: poor bioavailablity; stability under physiological conditions ([3]; physiological conditions): notably unstable; signs of stress, intolerance or toxic responses to administration [4]: No signs of stress, intolerance to anesthesia, surgery or implantation or any toxic responses |
| CC(=O)Oc1cc(OC(C)=O)c2c(c1)O[C@H](c1cc(OC(C)=O)c(OC(C)=O)c(OC(C)=O)c1)[C@H](OC(=O)c1cc(OC(C)=O)c(OC(C)=O)c(OC(C)=O)c1)C2 [pro-EGCG, (−)-EGCG octaacetate] | significantly inhibited | significantly inhibited | significantly inhibited | poorly developed | significantly inhibited | significantly inhibited | significantly inhibited | significantly decreased | significantly decreased | poorly developed; also recorded: degraded and almost detached from the peritoneal muscle layers | not affected | not affected | all of the microvessel parameters compared with EGCG group ([1]; 50 mg/kg i.p.): significantly lower than those in the EGCG group; lesion size compared with EGCG-treated mice [2, 7]: significantly smaller; lesion weight compared with EGCG-treated mice [2, 7]: lighter; potency in inhibition of proliferation and transforming activity and induction of apoptosis, compared with EGCG [6]: much higher potency than EGCG; cell death induction (cancer cells): cell death induction; proteasome inhibition (cancer cells): exhibited proteasome inhibition |
